Measured values from ChEMBL document CHEMBL1201862, “PubChem BioAssay data set” (2004).
Active and inactive are the calls of the source.

Columns and labels:
[1] = NIH-3T3 fibroblast cytotoxicity, dose response, cytotoxicity control, cell-based, fluorescence, Alamar Blue, secondary assay (AID 2327); type: functional;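 note: NIH-3T3 mouse fibroblasts cultured with fluconazole at 8 µg/mL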
HEK293 [2] = experiment: inhibition of NOD1-driven NF-kB reporter – cell-based, luminescence, uHTS, primary screen (AID 1578); type: functional; conditions: Homo sapiens
HEK293 [3] = experiment: cells; type: functional, cell-based; conditions: Homo sapiens
[4] = fluconazole-exposed Candida albicans growth modulators – fluorescence, retest, confirmation (AID 2467); type: functional, cell-based
HEK293 [5] = experiment: cells; type: functional, cell-based; conditions: Homo sapiens; remark: listed apart in the source
[6] = target: Nucleotide-binding oligomerization domain-containing protein 2 (Homo sapiens, UniProt Q9HC29); experiment: inhibition of NOD2-driven NF-kB reporter – cell-based, luminescence, uHTS, HEK293 (AID 1566); type: functional
HEK293 [7] = experiment: NOD2 signaling inhibitors in MDP-stimulated cells, cell-based, uHTS, luminescence (AID 2001); type: functional; conditions: Homo sapiens
[8] = Trypanosoma cruzi growth suppression in host cells – NIH3T3 host cells, beta-gal luminescence, confirmation (AID 2044); type: functional, cell-based;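 note: intracellular parasites grown in NIH/3T3 mouse fibroblasts as host cells; luminescent beta-galactosidase reporter signal from transgenic T. cruzi replicating inside host cells; inhibitors lower the luminescence signal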
HEK293 [9] = experiment: cells; type: functional, cell-based; conditions: Homo sapiens; remark: listed apart in the source
[10] = microbe, parasite or virus in culture; type: functional; conditions: Mycobacterium tuberculosis
[11] = NIH3T3 cell viability loss – ATP luminescence, mouse fibroblasts, counter-screen, dose response (AID 2010); type: functional, cell-based;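 note: cells exposed to compound for about 90 hours before reading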
[12] = target: G-protein coupled receptor 55 (Homo sapiens, UniProt Q9Y2T6); experiment: blockers of GPR55 signalling, imaged – imaging, image-based, counter-screen for GPR35 antagonist project, SAR follow-up (AID 2397); type: functional
INS1 = experiment: INS-1E survival protection against cytokine death – cell-based, luminescence, retest, dose response (AID 449756); type: functional; conditions: Rattus norvegicus;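 note: cell death triggered by IL-1 beta plus TNF-alpha plus IFN-gamma mixture; protective hits raise ATP signal compared with cytokine alone wells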
[13] = target: Luciferin 4-monooxygenase (Photinus pyralis, UniProt P08659); experiment: inhibition of purified Photinus pyralis luciferase – biochemical, luminescence, dose response (AID 1891)
[14] = Luminescence Cell-Based Dose Confirmation HTS to Identify Inhibitors of Platelet Dense Granule Release. [Related pubchem assays: 1663 (Primary HTS), 1678 (Summary of Project)]; type: functional
[15] = Luminescence Cell-Based/Microorganism Confirmation at Dose of Inhibitors of Trypanosoma cruzi Infection. [Related pubchem assays: 1885, 1968 ]; type: functional
[16] = Luminescence Cell-Based Secondary HTS screen to identify cytotoxic compounds of NIH3T3 cells. [Related pubchem assays: 1885, 1968 ]; type: functional
[17] = HepG2 cell cytotoxicity, dose response, cytotoxicity control for non-replicating M. tuberculosis project (AID 489018); type: functional; conditions: Mycobacterium tuberculosis
cells = type: functional
[18] = T. cruzi infection blockers in NIH3T3 cells – beta-gal luminescence, NIH3T3 host cells, confirmation (AID 2630); type: functional, cell-based; conditions: Mus musculus
[19] = target: Lysine-specific demethylase 4A (Homo sapiens, UniProt O75164); experiment: inhibition of JMJD2A H3K9me3 demethylation – biochemical, DELFIA europium, cherry-picked samples, selectivity assay for GASC-1 inhibitor project, dose response (AID 488840)
[20] = target: Lysine-specific demethylase 4C (Homo sapiens, UniProt Q9H3R0); experiment: inhibition of JMJD2C H3K9me3 demethylation – biochemical, DELFIA europium, cherry-picked samples, dose response (AID 488835); type: functional
[21] = target: T1, Mannose-6-phosphate isomerase (Homo sapiens, UniProt P34949); experiment: phosphomannose isomerase inhibition – biochemical, fluorescence intensity, confirmation (AID 1535)
T1 sequence (P34949 whole entry): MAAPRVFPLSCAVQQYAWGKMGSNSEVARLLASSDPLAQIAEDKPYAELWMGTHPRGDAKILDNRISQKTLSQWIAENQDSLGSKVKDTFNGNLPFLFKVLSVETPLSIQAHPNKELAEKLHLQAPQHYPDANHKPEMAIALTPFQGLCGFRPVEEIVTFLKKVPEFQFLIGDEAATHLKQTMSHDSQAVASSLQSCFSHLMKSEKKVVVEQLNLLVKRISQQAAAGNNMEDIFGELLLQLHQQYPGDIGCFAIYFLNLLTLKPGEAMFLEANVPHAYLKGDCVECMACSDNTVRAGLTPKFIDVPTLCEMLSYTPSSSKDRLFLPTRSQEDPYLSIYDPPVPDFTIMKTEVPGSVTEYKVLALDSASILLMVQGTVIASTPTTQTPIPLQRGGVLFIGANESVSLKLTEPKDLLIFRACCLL

[22] = target: Glucose-6-phosphate 1-dehydrogenase (Homo sapiens, UniProt P11413); experiment: inhibition of Homo sapiens G6PD, dose series – biochemical, fluorescence, selectivity assay for P. falciparum G6PD inhibitor project, dose response (AID 504792); type: functional
Phosphomannomutase 2 = Phosphomannomutase 2 (Homo sapiens, UniProt O15305); experiment: Counter screen SAR assay for PMM2 inhibitors via a fluorescence intensity assay. [Related pubchem assays (depositor defined):AID1545, AID1574]
[23] = target: Phosphoethanolamine/phosphocholine phosphatase (Homo sapiens, UniProt Q8TCT1); experiment: SAR assay for compounds that inhibit PHOSPHO1. [Related pubchem assays (depositor defined):AID1545, AID1565, AID1574]
[24] = target: DNA dC->dU-editing enzyme APOBEC-3G (Homo sapiens, UniProt Q9HC16); experiment: Dose Response confirmation of small molecule APOBEC3G DNA Deaminase Inhibitors via a fluorescence-based single-stranded DNA deaminase assay. [Related pubchem assays (depositor defined):AID493012, AID493028]; type: functional
SUMO E1/E2 = SUMO E1/E2 (Homo sapiens, UniProt P63279+Q9UBE0+Q9UBT2); experiment: SAR analysis of SUMOylation using HTRF in an in-Vitro dose response assay. [Related pubchem assays (depositor defined):AID2006, AID2011, AID2018, AID2069, AID2658]; type: functional
[25] = target: T2, Voltage-gated N-type calcium channel alpha-1B subunit/Amyloid beta A4 precursor protein-binding family A member 1 (Homo sapiens, UniProt Q00975+Q02410); experiment: disruptors of Mint-PDZ/N-type channel peptide interaction – biochemical, HTRF, set 2, SAR follow-up (AID 434980); type: functional
[26] = target: T2, Voltage-gated N-type calcium channel alpha-1B subunit/Amyloid beta A4 precursor protein-binding family A member 1; experiment: disruptors of Mint-PDZ/N-type channel peptide interaction – biochemical, HTRF, SAR follow-up (AID 2489); type: functional
Tumor necrosis factor = Tumor necrosis factor (Homo sapiens, UniProt P01375); experiment: analog potency on TNFa NF-kB signaling – cell-based, revised, SAR follow-up (AID 2337); type: functional
[27] = target: T3, Nucleotide-binding oligomerization domain-containing protein 1 (Homo sapiens, UniProt Q9Y239); experiment: blockers of NOD1 pathway activity – revised, SAR follow-up (AID 2333); type: functional
T3 sequence (Q9Y239 whole entry): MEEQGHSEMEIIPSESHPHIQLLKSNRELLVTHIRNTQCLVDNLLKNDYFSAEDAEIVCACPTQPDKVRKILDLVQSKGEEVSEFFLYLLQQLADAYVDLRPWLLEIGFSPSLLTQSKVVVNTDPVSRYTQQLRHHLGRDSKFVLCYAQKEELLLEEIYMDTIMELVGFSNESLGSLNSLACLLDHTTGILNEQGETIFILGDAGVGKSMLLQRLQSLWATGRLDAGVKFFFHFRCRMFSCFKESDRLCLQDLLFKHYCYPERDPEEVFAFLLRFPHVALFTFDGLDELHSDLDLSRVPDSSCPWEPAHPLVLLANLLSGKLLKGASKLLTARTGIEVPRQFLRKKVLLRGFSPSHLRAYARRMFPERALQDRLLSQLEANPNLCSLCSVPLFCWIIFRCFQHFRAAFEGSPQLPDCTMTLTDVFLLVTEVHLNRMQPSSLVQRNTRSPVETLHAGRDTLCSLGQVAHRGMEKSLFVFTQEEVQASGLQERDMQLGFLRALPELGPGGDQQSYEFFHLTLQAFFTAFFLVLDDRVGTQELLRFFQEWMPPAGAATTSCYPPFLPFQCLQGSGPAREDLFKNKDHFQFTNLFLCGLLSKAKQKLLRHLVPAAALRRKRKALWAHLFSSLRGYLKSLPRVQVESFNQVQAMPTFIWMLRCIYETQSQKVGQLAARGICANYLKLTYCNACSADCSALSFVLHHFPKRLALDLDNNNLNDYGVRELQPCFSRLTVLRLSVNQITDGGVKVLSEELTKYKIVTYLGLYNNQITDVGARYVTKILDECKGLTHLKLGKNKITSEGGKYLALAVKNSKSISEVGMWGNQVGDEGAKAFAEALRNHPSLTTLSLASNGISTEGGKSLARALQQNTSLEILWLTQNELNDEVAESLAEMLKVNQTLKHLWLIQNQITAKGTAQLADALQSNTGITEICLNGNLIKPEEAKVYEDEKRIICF

HEK293 [28] = experiment: cells; conditions: Homo sapiens

T2 sequence (Q00975 whole entry): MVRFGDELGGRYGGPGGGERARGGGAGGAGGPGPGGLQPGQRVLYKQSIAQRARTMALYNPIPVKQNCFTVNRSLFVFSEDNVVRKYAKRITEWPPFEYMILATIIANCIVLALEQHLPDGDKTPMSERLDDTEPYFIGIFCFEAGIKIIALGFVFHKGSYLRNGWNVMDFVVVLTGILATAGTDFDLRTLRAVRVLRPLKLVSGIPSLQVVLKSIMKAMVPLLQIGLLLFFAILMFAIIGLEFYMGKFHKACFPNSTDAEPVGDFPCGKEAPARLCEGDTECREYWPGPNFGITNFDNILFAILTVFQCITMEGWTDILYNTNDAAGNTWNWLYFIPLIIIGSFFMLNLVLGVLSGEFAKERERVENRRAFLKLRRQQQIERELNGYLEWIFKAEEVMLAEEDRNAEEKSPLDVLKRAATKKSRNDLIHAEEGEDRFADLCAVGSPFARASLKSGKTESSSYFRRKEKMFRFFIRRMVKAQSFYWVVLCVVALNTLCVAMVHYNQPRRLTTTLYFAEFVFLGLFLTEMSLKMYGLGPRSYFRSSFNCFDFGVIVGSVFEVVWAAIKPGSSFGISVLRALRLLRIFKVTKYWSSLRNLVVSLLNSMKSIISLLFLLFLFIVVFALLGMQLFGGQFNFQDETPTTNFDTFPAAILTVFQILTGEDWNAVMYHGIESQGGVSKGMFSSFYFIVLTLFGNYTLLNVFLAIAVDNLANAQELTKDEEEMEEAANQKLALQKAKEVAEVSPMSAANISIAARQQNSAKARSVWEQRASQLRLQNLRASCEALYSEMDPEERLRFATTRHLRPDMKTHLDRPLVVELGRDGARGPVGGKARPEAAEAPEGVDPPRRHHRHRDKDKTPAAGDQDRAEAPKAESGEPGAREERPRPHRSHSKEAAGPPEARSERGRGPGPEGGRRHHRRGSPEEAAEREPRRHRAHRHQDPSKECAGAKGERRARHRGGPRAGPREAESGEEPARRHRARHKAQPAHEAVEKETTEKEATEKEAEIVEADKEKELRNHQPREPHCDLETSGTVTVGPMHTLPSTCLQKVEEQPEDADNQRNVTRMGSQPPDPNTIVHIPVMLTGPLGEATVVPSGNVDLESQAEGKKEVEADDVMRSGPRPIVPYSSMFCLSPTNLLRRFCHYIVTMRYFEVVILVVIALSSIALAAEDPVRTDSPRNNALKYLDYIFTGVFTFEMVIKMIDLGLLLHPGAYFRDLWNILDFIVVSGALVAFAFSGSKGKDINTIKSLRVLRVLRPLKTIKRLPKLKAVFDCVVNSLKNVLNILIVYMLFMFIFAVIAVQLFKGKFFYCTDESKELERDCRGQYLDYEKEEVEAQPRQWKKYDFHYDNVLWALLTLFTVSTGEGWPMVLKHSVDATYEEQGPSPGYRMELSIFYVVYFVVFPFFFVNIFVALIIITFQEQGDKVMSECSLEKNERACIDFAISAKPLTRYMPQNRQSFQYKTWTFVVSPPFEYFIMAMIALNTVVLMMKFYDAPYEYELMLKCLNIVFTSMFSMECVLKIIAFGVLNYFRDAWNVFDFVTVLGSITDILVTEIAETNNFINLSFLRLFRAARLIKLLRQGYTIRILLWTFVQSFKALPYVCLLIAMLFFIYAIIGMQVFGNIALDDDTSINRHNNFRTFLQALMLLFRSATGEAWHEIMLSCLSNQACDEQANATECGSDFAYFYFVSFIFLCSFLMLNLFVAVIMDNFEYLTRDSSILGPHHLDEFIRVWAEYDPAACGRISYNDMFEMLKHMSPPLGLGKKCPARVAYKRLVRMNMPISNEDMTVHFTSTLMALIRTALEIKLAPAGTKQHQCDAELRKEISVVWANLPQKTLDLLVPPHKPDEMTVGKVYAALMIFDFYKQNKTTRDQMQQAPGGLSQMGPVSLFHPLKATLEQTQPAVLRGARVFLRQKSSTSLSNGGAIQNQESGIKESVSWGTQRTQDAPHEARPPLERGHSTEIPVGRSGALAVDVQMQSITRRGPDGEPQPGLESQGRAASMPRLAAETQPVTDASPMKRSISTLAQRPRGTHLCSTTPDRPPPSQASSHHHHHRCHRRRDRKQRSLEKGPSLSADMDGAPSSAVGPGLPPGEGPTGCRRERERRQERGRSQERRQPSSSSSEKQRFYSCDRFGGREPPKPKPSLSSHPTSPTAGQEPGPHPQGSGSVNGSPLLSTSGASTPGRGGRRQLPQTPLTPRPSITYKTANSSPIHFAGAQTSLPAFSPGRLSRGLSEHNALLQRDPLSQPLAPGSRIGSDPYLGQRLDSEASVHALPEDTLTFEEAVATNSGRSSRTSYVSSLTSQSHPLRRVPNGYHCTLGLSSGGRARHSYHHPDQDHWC
T2 sequence (Q02410 whole entry): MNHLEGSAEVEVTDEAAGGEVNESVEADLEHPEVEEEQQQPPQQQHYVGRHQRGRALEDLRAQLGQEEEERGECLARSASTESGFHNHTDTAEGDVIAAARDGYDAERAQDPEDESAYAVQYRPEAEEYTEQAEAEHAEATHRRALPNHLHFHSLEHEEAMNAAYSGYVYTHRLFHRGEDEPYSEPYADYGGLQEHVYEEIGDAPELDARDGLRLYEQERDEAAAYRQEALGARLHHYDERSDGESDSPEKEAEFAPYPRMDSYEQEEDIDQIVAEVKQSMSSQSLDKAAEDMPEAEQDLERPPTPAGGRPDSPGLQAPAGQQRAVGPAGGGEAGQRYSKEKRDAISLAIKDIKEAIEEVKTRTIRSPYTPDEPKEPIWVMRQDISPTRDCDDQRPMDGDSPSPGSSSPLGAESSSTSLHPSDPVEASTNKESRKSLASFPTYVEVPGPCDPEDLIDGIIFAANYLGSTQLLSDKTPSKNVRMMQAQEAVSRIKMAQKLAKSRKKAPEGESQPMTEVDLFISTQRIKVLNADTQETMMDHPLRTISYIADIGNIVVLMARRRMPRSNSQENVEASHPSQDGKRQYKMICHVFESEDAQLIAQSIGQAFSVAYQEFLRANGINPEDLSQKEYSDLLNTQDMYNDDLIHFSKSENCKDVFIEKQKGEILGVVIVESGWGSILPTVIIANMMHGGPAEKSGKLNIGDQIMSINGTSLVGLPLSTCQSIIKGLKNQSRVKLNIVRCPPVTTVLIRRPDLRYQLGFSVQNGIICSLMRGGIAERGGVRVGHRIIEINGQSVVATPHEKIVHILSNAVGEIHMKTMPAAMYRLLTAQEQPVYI
Glucose-6-phosphate 1-dehydrogenase, sequence (P11413 whole entry): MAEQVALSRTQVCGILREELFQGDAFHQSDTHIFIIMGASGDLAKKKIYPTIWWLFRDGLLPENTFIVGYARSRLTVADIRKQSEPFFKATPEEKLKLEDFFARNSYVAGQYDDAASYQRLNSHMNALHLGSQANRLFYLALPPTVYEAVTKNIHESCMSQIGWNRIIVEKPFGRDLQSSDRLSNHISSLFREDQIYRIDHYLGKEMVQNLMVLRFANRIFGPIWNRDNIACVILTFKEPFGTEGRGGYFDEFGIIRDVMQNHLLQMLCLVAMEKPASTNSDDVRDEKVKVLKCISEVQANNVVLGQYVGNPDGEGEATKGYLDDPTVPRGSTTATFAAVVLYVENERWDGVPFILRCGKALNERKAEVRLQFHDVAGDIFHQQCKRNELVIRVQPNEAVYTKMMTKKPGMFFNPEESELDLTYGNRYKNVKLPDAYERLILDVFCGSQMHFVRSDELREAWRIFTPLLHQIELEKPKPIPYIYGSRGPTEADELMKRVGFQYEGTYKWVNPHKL
Phosphoethanolamine/phosphocholine phosphatase, sequence (Q8TCT1 whole entry): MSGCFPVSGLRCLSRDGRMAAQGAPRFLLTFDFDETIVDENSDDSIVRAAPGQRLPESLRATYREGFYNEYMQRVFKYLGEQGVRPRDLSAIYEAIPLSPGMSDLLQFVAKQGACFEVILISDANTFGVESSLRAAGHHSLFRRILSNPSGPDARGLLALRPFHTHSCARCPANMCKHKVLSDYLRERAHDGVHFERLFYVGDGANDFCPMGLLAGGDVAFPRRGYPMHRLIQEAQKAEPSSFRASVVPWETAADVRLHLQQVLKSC
G-protein coupled receptor 55, sequence (Q9Y2T6 whole entry): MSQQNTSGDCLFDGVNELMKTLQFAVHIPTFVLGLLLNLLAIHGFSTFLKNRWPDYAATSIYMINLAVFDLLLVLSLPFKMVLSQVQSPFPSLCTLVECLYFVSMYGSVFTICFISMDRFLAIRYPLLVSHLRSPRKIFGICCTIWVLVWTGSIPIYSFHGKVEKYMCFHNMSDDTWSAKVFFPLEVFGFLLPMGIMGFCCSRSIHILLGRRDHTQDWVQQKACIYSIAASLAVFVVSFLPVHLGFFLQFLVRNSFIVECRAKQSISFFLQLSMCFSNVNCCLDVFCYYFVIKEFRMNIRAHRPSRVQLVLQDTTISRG
Phosphomannomutase 2, sequence (O15305 whole entry): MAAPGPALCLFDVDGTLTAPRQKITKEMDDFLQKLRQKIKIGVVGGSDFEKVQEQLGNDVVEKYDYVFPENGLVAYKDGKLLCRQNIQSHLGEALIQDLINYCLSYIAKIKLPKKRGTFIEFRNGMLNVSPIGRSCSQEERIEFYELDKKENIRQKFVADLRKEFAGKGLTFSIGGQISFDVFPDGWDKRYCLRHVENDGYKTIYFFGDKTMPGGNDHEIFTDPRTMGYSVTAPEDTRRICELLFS
Tumor necrosis factor, sequence (P01375 whole entry, the tested form may be a part): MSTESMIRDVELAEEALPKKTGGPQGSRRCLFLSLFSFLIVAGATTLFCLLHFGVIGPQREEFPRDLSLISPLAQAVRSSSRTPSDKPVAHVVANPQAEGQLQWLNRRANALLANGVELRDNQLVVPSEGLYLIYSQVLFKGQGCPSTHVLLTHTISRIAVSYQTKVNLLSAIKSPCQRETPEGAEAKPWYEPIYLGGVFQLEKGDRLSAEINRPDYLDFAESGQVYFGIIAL

Cc1ccc2c(c1)c(/C=C/c1cc[n+](C)cc1)c(C)n2C
EC50 [1]: > 160 µM (inactive) | EC50 (HEK293 [2]): 17.3 µM (active) | IC50 (HEK293 [3]): 18 µM (active) | EC50 [4]: 0.59 µM (active) | IC50 (HEK293 [5]): > 20 µM (inactive) | EC50 [6]: 4.42 µM (active) | IC50 (HEK293 [7]): 14.7 µM (inactive) | EC50 [8]: 0.294 µM (active) | IC50 (HEK293 [9]): > 20 µM (inactive) | CC50 [10]: > 40 µM (active) | EC50 [11]: > 60 µM (not active) | IC50 [12]: 0.462 µM (active) | AC50 (INS1): 3.46 µM (active)

OC(COc1ccc2ccccc2c1Br)Cn1ccnc1 (stereo not given)
EC50 [13]: > 112 µM (not active) | EC50 [14]: > 112 µM (not active) | EC50 [15]: 2.07 µM (active) | EC50 [8]: 0.501 µM (active) | EC50 [16]: > 195 µM (not active) | EC50 [11]: > 60 µM (not active) | CC50 [17]: > 20 µM (active) | IC50 (cells): 14.3 µM (active) | EC50 [18]: 2.07 µM (active)

O=C1NC(=O)C(=NNC(=O)C2COc3ccccc3O2)C(=O)N1 (stereo not given)
AC50 [19]: 11.7 µM (active) | AC50 [20]: 2.66 µM (active)

O=c1c2ccccc2sn1-c1ccc(S(=O)(=O)N2CCCCC2)cc1
IC50 [21]: > 50 µM (inactive) | IC50 [22]: > 80 µM (inactive) | IC50 (Phosphomannomutase 2): > 100 µM (inactive) | IC50 [23]: 38.9 µM (inactive) | IC50 [24]: 19.4 µM (active)

COc1ccc(CNC(=O)C(C)OC(=O)c2cc(-c3ccco3)nc3ccccc23)cc1 (stereo not given)
IC50 (SUMO E1/E2): 7.68 µM (active) | IC50 [25]: 8.2 µM (active) | IC50 [26]: 17.5 µM (active)

CCC(=O)N1c2ccc(S(=O)(=O)N3CCN(c4ccc(Cl)cc4)CC3)cc2CC1C (stereo not given)
IC50 (Tumor necrosis factor): 0.584 µM (active) | IC50 [27]: 1.01 µM (active) | IC50 (HEK293 [28]): 6.8 µM (active)
